Reference: US20250186405A1, “Compound For Use In Treating Narcolepsy” (Alkermes, Inc., priority 2023, published 2025)

Tested on: subjects with narcolepsy type-2 (NT2)
Test: Part 5 POC NT2: treatment-emergent adverse events, single doses, crossover
Conditions: N = 9
Protocol: Part 5 consisted of a 4-way, 4-period crossover study design in approximately 8 subjects (2 subjects per sequence; minimum of 4 subjects with 1 subject per sequence). Subjects were randomized 1:1:1:1 to 1 of 4 sequences with 4 treatment periods (3 single doses of Compound A and 1 dose of matching placebo), with up to 48 hours of washout between treatments. Treatments were administered under fasted state.
Subjects were randomized to 1 of 4 sequences. […] In each period, subjects were administered a single dose of study drug (either Compound A or placebo) as per the randomization schedule with approximately 240 mL of noncarbonated water following overnight fasting. No food was given for at least 3 hours after dose administration (i.e., fast can be broken after the 3-hour PK time point is collected). Water was allowed ad libitum except for 1 hour before and 1 hour after study drug administration. Safety assessments including AEs, safety ECGs, vital signs, and clinical laboratory tests were conducted, and plasma PK samples were collected. Furthermore, BP and HR were monitored once every hour for 12 hours on the dosing days.
Adverse events (AEs) and serious adverse events (SAEs) were monitored continuously until the completion of the study.
Nine subjects with NT2 were dosed in Part 5 (POC in NT2) in a randomized 4-sequence 4-period cross-over design. Each dose of Compound A or matching placebo was separated by 2 days. A 14-day washout period preceded the treatment period and included discontinuation of narcolepsy medications. All 9 subjects underwent the washout period and received at least one dose of Compound A. All subjects completed all 4-way randomized crossover periods.

`CS(=O)(=O)N[C@H]1CCCN2C(=O)COc3ccccc3C3CCC(CC3)OCC12` (stereo partly drawn) [Compound A, N-[(4S,4aR,7α,10α)-1,2,3,4,4a,5,7,8,9,10,16,17-dodecahydro-17-oxo-7,10-ethanopyrido[1,2-d][1,7,4]benzodioxaazacyclotridecin-4-yl]methanesulfonamide] was tested, and the “AE Leading to Study Drug Discontinuation” value (5 mg single dose) was 0 n (%), the “Any SAEs” value (5 mg single dose) was 0 n (%) and the “Any TEAE” value (5 mg single dose) was 3 (33.3) n (%). For the same molecule, the Death (5 mg single dose) was 0 n (%), the “Drug Related TEAE by Preferred Term: Altered state of consciousness” value (5 mg single dose) was 0 n (%) and the “Drug Related TEAE by Preferred Term: Dizziness” value (5 mg single dose) was 0 n (%). For the same molecule, the “Drug Related TEAE by Preferred Term: Dizziness postural” value (5 mg single dose) was 0 n (%), the “Drug Related TEAE by Preferred Term: Feeling jittery” value (5 mg single dose) was 0 n (%) and the “Drug Related TEAE by Preferred Term: Headache” value (5 mg single dose) was 0 n (%). For the same molecule, the “Drug Related TEAE by Preferred Term: Initial insomnia” value (5 mg single dose) was 1 (11.1) n (%), the “Drug Related TEAE by Preferred Term: Insomnia” value (5 mg single dose) was 0 n (%) and the “Drug Related TEAE by Preferred Term: Photophobia” value (5 mg single dose) was 0 n (%). For the same molecule, the “Drug Related TEAE by Preferred Term: Pollakiuria” value (5 mg single dose) was 0 n (%), the “Drug Related TEAE by Preferred Term: Tachycardia” value (5 mg single dose) was 0 n (%) and the “Drug Related TEAE by Preferred Term: Urinary incontinence” value (5 mg single dose) was 0 n (%). For the same molecule, the “Subjects with at least one TEAE” value (5 mg single dose) was 3 (33.3) n (%), the “Subjects with at least one treatment-related TEAE” value (5 mg single dose) was 1 (11.1) n (%) and the “TEAE by Highest Relationship: Not Related” value (5 mg single dose) was 2 (22.2) n (%). The “TEAE by Highest Relationship: Related” value (5 mg single dose) was 1 (11.1) n (%), the “TEAE by Highest Severity: Mild” value (5 mg single dose) was 3 (33.3) n (%) and the “TEAE by Highest Severity: Moderate” value (5 mg single dose) was 0 n (%). For the same molecule, the “TEAE by Highest Severity: Severe” value (5 mg single dose) was 0 n (%), the “TEAE by Preferred Term: Altered state of consciousness” value (5 mg single dose) was 0 n (%) and the “TEAE by Preferred Term: Constipation” value (5 mg single dose) was 0 n (%). The “TEAE by Preferred Term: Contusion” value (5 mg single dose) was 0 n (%), the “TEAE by Preferred Term: Dizziness” value (5 mg single dose) was 0 n (%) and the “TEAE by Preferred Term: Dizziness postural” value (5 mg single dose) was 0 n (%). The “TEAE by Preferred Term: Dry skin” value (5 mg single dose) was 1 (11.1) n (%), the “TEAE by Preferred Term: Feeling jittery” value (5 mg single dose) was 0 n (%) and the “TEAE by Preferred Term: Headache” value (5 mg single dose) was 0 n (%). For the same molecule, the “TEAE by Preferred Term: Initial insomnia” value (5 mg single dose) was 1 (11.1) n (%), the “TEAE by Preferred Term: Insomnia” value (5 mg single dose) was 0 n (%) and the “TEAE by Preferred Term: Nasal dryness” value (5 mg single dose) was 0 n (%). The “TEAE by Preferred Term: Nausea” value (5 mg single dose) was 0 n (%), the “TEAE by Preferred Term: Photophobia” value (5 mg single dose) was 0 n (%) and the “TEAE by Preferred Term: Pollakiuria” value (5 mg single dose) was 0 n (%). For the same molecule, the “TEAE by Preferred Term: Rash” value (5 mg single dose) was 0 n (%), the “TEAE by Preferred Term: Skin lesion” value (5 mg single dose) was 1 (11.1) n (%) and the “TEAE by Preferred Term: Tachycardia” value (5 mg single dose) was 0 n (%). The “TEAE by Preferred Term: Urinary incontinence” value (5 mg single dose) was 0 n (%), the “AE Leading to Study Drug Discontinuation” value (12 mg single dose) was 0 n (%) and the “Any SAEs” value (12 mg single dose) was 0 n (%). The “Any TEAE” value (12 mg single dose) was 4 (44.4) n (%), the Death (12 mg single dose) was 0 n (%) and the “Drug Related TEAE by Preferred Term: Altered state of consciousness” value (12 mg single dose) was 0 n (%). For the same molecule, the “Drug Related TEAE by Preferred Term: Dizziness” value (12 mg single dose) was 0 n (%), the “Drug Related TEAE by Preferred Term: Dizziness postural” value (12 mg single dose) was 0 n (%) and the “Drug Related TEAE by Preferred Term: Feeling jittery” value (12 mg single dose) was 0 n (%). The “Drug Related TEAE by Preferred Term: Headache” value (12 mg single dose) was 0 n (%), the “Drug Related TEAE by Preferred Term: Initial insomnia” value (12 mg single dose) was 0 n (%) and the “Drug Related TEAE by Preferred Term: Insomnia” value (12 mg single dose) was 0 n (%). For the same molecule, the “Drug Related TEAE by Preferred Term: Photophobia” value (12 mg single dose) was 0 n (%), the “Drug Related TEAE by Preferred Term: Pollakiuria” value (12 mg single dose) was 1 (1.1) n (%) and the “Drug Related TEAE by Preferred Term: Tachycardia” value (12 mg single dose) was 0 n (%). For the same molecule, the “Drug Related TEAE by Preferred Term: Urinary incontinence” value (12 mg single dose) was 0 n (%), the “Subjects with at least one TEAE” value (12 mg single dose) was 4 (44.4) n (%) and the “Subjects with at least one treatment-related TEAE” value (12 mg single dose) was 1 (11.1) n (%). For the same molecule, the “TEAE by Highest Relationship: Not Related” value (12 mg single dose) was 3 (33.3) n (%), the “TEAE by Highest Relationship: Related” value (12 mg single dose) was 1 (11.1) n (%) and the “TEAE by Highest Severity: Mild” value (12 mg single dose) was 4 (44.4) n (%). The “TEAE by Highest Severity: Moderate” value (12 mg single dose) was 0 n (%), the “TEAE by Highest Severity: Severe” value (12 mg single dose) was 0 n (%) and the “TEAE by Preferred Term: Altered state of consciousness” value (12 mg single dose) was 0 n (%). The “TEAE by Preferred Term: Constipation” value (12 mg single dose) was 1 (11.1) n (%), the “TEAE by Preferred Term: Contusion” value (12 mg single dose) was 0 n (%) and the “TEAE by Preferred Term: Dizziness” value (12 mg single dose) was 0 n (%). For the same molecule, the “TEAE by Preferred Term: Dizziness postural” value (12 mg single dose) was 0 n (%), the “TEAE by Preferred Term: Dry skin” value (12 mg single dose) was 0 n (%) and the “TEAE by Preferred Term: Feeling jittery” value (12 mg single dose) was 0 n (%). The “TEAE by Preferred Term: Headache” value (12 mg single dose) was 0 n (%), the “TEAE by Preferred Term: Initial insomnia” value (12 mg single dose) was 0 n (%) and the “TEAE by Preferred Term: Insomnia” value (12 mg single dose) was 0 n (%). The “TEAE by Preferred Term: Nasal dryness” value (12 mg single dose) was 0 n (%), the “TEAE by Preferred Term: Nausea” value (12 mg single dose) was 1 (11.1) n (%) and the “TEAE by Preferred Term: Photophobia” value (12 mg single dose) was 0 n (%). The “TEAE by Preferred Term: Pollakiuria” value (12 mg single dose) was 1 (11.1) n (%), the “TEAE by Preferred Term: Rash” value (12 mg single dose) was 1 (11.1) n (%) and the “TEAE by Preferred Term: Skin lesion” value (12 mg single dose) was 0 n (%). For the same molecule, the “TEAE by Preferred Term: Tachycardia” value (12 mg single dose) was 0 n (%), the “TEAE by Preferred Term: Urinary incontinence” value (12 mg single dose) was 0 n (%) and the “AE Leading to Study Drug Discontinuation” value (25 mg single dose) was 0 n (%).
